In ChEMBL document CHEMBL1201862, “PubChem BioAssay data set” (2004):
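Protocol summary: plate cells (96-well), add compound at 5 concentrations, incubate 48 h, interpolate endpoints linearly. GI50: concentration for 50% inhibition of growth.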 Active and inactive are the calls of the source. Rule as the data show it: active = GI50 up to about 1.1 µM and inactive = higher.

What was measured:
Assay in all cases: growth of human tumour cells (NCI), 48 h
[1] = system: OVCAR-4
[2] = system: ACHN
[3] = system: U-251
[4] = system: TK-10
[5] = system: NCI-H460
[6] = system: HCT-116
[7] = system: UACC-257
[8] = system: SR
[9] = system: COLO 205
[10] = system: MOLT-4
[11] = system: SNB-75
[12] = system: LOX IMVI
[13] = system: A549
[14] = system: DU-145
[15] = system: CAKI-1
[16] = system: EKVX
[17] = system: RPMI-8226
[18] = system: OVCAR-5
[19] = system: Hs-578T
[20] = system: T47D
[21] = system: SW-620
[22] = system: OVCAR-8
[23] = system: RXF 393
[24] = system: HOP-92
[25] = system: SK-MEL-28
[26] = system: 786-0
[27] = system: HT-29
[28] = system: A498
[29] = system: M14
[30] = system: SF-539
[31] = system: MDA-MB-435
[32] = system: Malme-3M
[33] = system: KM12
[34] = system: K562
[35] = system: NCI-H226
[36] = system: HL-60
[37] = system: HOP-62
[38] = system: UO-31
[39] = system: IGROV-1
[40] = system: SF-268
[41] = system: NCI-H522
[42] = system: UACC-62
[43] = system: PC-3
[44] = system: SK-MEL-5
[45] = system: MDA-MB-231
[46] = system: NCI/ADR-RES
[47] = system: SNB-19
[48] = system: NCI-H23
[49] = system: CCRF-CEM
[50] = system: OVCAR-3
[51] = system: SN12C
[52] = system: SF-295

Measured: GI50

COC(=O)[C@@H]1CN(C(=O)Cc2ccccc2)C(=O)N1
inactive: [1] > 100 µM | [2] > 100 µM | [3] > 100 µM | [4] > 100 µM | [5] > 100 µM | [6] > 100 µM | [7] > 100 µM | [8] > 100 µM | [9] > 100 µM | [10] > 100 µM | [11] 93.8 µM | [12] > 100 µM | [13] > 100 µM | [14] > 100 µM | [15] > 100 µM | [16] > 100 µM | [17] > 100 µM | [18] > 100 µM | [19] > 100 µM | [20] > 100 µM | [21] > 100 µM | [22] > 100 µM | [23] > 100 µM | [24] > 100 µM | [25] > 100 µM | [26] > 100 µM | [27] > 100 µM | [28] > 100 µM | [29] > 100 µM | [30] > 100 µM | [31] > 100 µM | [32] > 100 µM | [33] > 100 µM | [34] > 100 µM | [35] > 100 µM | [36] > 100 µM | [37] > 100 µM | [38] > 100 µM | [39] > 100 µM | [40] > 100 µM | [41] > 100 µM | [42] > 100 µM | [43] > 100 µM | [44] > 100 µM | [45] > 100 µM | [46] > 100 µM | [47] > 100 µM | [48] > 100 µM | [49] > 100 µM | [50] > 100 µM | [51] > 100 µM | [52] > 100 µM
